According to ChEMBL document CHEMBL1201862, “PubChem BioAssay data set” (2004):
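Following 48 hours of exposure in 96-well plates, responses at five concentrations were used to interpolate endpoints linearly. Abbreviation: GI50, concentration required for 50% inhibition of growth.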 Active and inactive are the calls of the source. Rule as the data show it: active = GI50 up to about 1.1 µM and inactive = higher.

Tests used:
Test in all cases: inhibition of tumour cell growth, NCI panel, 48 h
Hs-578T = test system: Hs-578T
HCT-116 = test system: HCT-116
T47D = test system: T47D
HCC 2998 = test system: HCC 2998
SW-620 = test system: SW-620
NCI-H460 = test system: NCI-H460
SK-MEL-5 = test system: SK-MEL-5
MOLT-4 = test system: MOLT-4
CAKI-1 = test system: CAKI-1
M14 = test system: M14
HT-29 = test system: HT-29
UACC-257 = test system: UACC-257
ACHN = test system: ACHN
OVCAR-8 = test system: OVCAR-8
A549 = test system: A549
PC-3 = test system: PC-3
SNB-19 = test system: SNB-19
EKVX = test system: EKVX
RXF 393 = test system: RXF 393

Measured: GI50

NC(=O)c1nnc2c(F)cccc2c1N
inactive: Hs-578T > 100 µM | HCT-116 64.4 µM | T47D > 100 µM | HCC 2998 93.1 µM | SW-620 27.4 µM | NCI-H460 72.1 µM | SK-MEL-5 > 100 µM | MOLT-4 > 100 µM | CAKI-1 > 100 µM | M14 > 100 µM | HT-29 > 100 µM | UACC-257 > 100 µM | ACHN > 100 µM | OVCAR-8 > 100 µM | A549 84.5 µM | PC-3 > 100 µM | SNB-19 > 100 µM | EKVX > 100 µM

COc1cc2c(cc1OC)CN1CCc3ccccc3CC1C2 (stereo not given)
inactive: Hs-578T > 100 µM | HCT-116 23.8 µM | T47D 22.5 µM | HCC 2998 28.8 µM | SW-620 37.8 µM | NCI-H460 26.3 µM | SK-MEL-5 27.1 µM | MOLT-4 28.8 µM | CAKI-1 42.4 µM | M14 30.1 µM | HT-29 12.6 µM | UACC-257 51.4 µM | ACHN 22.6 µM | OVCAR-8 44.1 µM | A549 49.7 µM | PC-3 41.7 µM | SNB-19 52 µM | EKVX 47.3 µM

Cc1ccc(/N=N/c2ccc(N)cc2C)c(S(N)(=O)=O)c1
inactive: Hs-578T 63 µM | HCT-116 75.3 µM | T47D 48.8 µM | SW-620 > 100 µM | NCI-H460 49.3 µM | SK-MEL-5 77.6 µM | MOLT-4 64 µM | RXF 393 > 100 µM | CAKI-1 > 100 µM | M14 > 100 µM | HT-29 82.4 µM | UACC-257 45.2 µM | ACHN 90.6 µM | OVCAR-8 76.7 µM | A549 50.5 µM | PC-3 89.7 µM | SNB-19 > 100 µM | EKVX 26.1 µM

CC1C(C#N)(C#N)C(C#N)=C(N)C1(Cl)[N+](=O)[O-] (stereo not given)
inactive: Hs-578T 16.1 µM | HCT-116 7.19 µM | T47D 15.7 µM | HCC 2998 17.3 µM | SW-620 2.17 µM | SK-MEL-5 12.1 µM | MOLT-4 1.72 µM | RXF 393 4.33 µM | CAKI-1 5.4 µM | M14 5.07 µM | HT-29 9.04 µM | UACC-257 12 µM | ACHN 11.3 µM | OVCAR-8 14.9 µM | A549 21.7 µM | PC-3 17.7 µM | SNB-19 19.3 µM | EKVX 17.8 µM

O=C(CC(C(=O)c1cccs1)c1ccsc1)c1ccc(Cl)cc1 (stereo not given)
inactive: Hs-578T > 100 µM | HCT-116 > 100 µM | T47D > 100 µM | HCC 2998 > 100 µM | SW-620 > 100 µM | NCI-H460 > 100 µM | SK-MEL-5 > 100 µM | MOLT-4 > 100 µM | CAKI-1 > 100 µM | M14 > 100 µM | HT-29 > 100 µM | UACC-257 > 100 µM | ACHN > 100 µM | OVCAR-8 > 100 µM | A549 > 100 µM | PC-3 > 100 µM | SNB-19 > 100 µM | EKVX > 100 µM

CC1(C)OC2C(=O)C=C(COCc3ccccc3)C2O1 (stereo not given)
inactive: Hs-578T 27 µM | HCT-116 23.6 µM | T47D 23 µM | SW-620 23.6 µM | SK-MEL-5 13.1 µM | MOLT-4 28.4 µM | RXF 393 15.5 µM | CAKI-1 35.3 µM | M14 26.3 µM | HT-29 33 µM | UACC-257 35.5 µM | ACHN 31.6 µM | OVCAR-8 34.2 µM | A549 > 100 µM | PC-3 23.9 µM | SNB-19 47.2 µM | EKVX 37.5 µM

COc1cc(N(Cc2ccc3nc(OC)c(OC)nc3c2)Cc2ccc3nc(OC)c(OC)nc3c2)cc(OC)c1OC
inactive: Hs-578T 7.67 µM | HCT-116 33.2 µM | T47D > 50 µM | SW-620 > 50 µM | SK-MEL-5 > 50 µM | MOLT-4 > 50 µM | RXF 393 10.7 µM | CAKI-1 > 50 µM | M14 > 50 µM | HT-29 > 50 µM | UACC-257 > 50 µM | ACHN 42.2 µM | OVCAR-8 > 50 µM | A549 > 50 µM | PC-3 > 50 µM | SNB-19 14.9 µM | EKVX 39.3 µM

CC/C=N\N1C(N)=C(C#N)C(C#N)(C#N)C1CC (stereo not given)
inactive: Hs-578T > 100 µM | HCT-116 10.8 µM | T47D > 100 µM | HCC 2998 > 100 µM | SW-620 61.7 µM | SK-MEL-5 53.1 µM | MOLT-4 39 µM | RXF 393 > 100 µM | CAKI-1 > 100 µM | M14 > 100 µM | HT-29 28.8 µM | UACC-257 > 100 µM | ACHN > 100 µM | OVCAR-8 44.9 µM | A549 > 100 µM | PC-3 > 100 µM | SNB-19 > 100 µM | EKVX > 100 µM

O=C1NC(N2CCOCC2)=N/C1=C\c1ccco1
inactive: Hs-578T > 100 µM | HCT-116 > 100 µM | T47D > 100 µM | HCC 2998 > 100 µM | SW-620 > 100 µM | SK-MEL-5 > 100 µM | MOLT-4 > 100 µM | RXF 393 > 100 µM | CAKI-1 > 100 µM | M14 > 100 µM | HT-29 > 100 µM | UACC-257 > 100 µM | ACHN > 100 µM | OVCAR-8 > 100 µM | A549 > 100 µM | PC-3 > 100 µM | SNB-19 > 100 µM | EKVX > 100 µM

C[C@]12CC[C@H]3[C@@H](CCC4=CC(=O)CC[C@@]43C)[C@@H]1CC[C@@H]2C(=O)Nc1ccc([N+](=O)[O-])c(C(F)(F)F)c1
inactive: Hs-578T 18.2 µM | HCT-116 17.5 µM | T47D 15.6 µM | HCC 2998 12.9 µM | SW-620 20.9 µM | NCI-H460 17.3 µM | SK-MEL-5 14.3 µM | MOLT-4 24.2 µM | CAKI-1 18.7 µM | HT-29 18.2 µM | UACC-257 > 10 µM | ACHN 18.7 µM | OVCAR-8 26.4 µM | A549 17.9 µM | PC-3 19.6 µM | SNB-19 18.5 µM | EKVX 13.4 µM

O=C(Nc1cccc2ccccc12)c1cc2ccccc2oc1=O
inactive: Hs-578T 32.8 µM | HCT-116 36.8 µM | T47D > 100 µM | HCC 2998 > 100 µM | SW-620 > 100 µM | NCI-H460 > 100 µM | SK-MEL-5 > 100 µM | MOLT-4 > 100 µM | RXF 393 22.6 µM | CAKI-1 48 µM | M14 > 100 µM | HT-29 28.1 µM | UACC-257 > 100 µM | ACHN 24.3 µM | OVCAR-8 39.4 µM | A549 > 100 µM | PC-3 > 100 µM | SNB-19 22 µM
